{"source": "patent US20100016355A1", "about": "“ALPHA-2B ADRENERGIC RECEPTOR AGONIST AND SEROTONIN-NOREPINEPHRINE REUPTAKE INHIBITOR COMPOSITIONS FOR TREATING CHRONIC PAIN” (priority 2006, published 2010)", "tested_on": "Chung rat model of chronic pain (allodynia)", "assay": "Chung rat model of chronic pain", "assay_type": "in vivo", "details": "rats", "protocol": "Amitriptyline was administered intraperitoneally to rats at a minimally effective dose; that is, the compound was administered at a dose that, when administered alone, is the minimum dose required to relieve pain (this dose was calculated by finding, first, the dose that produced drug's maximum effect—that is, the dose that fully alleviated pain—and dividing that dose by […]; the result is a dose that is slightly less than 50% of the dose that is required to produce the drug's maximum effect) The rats then immediately received one of two alpha-2B receptor agonists, compound No. 95 and compound no. No. 27, or received no additional compound, at all. Compound No. 95 and Compound No. 27 were administered intraperitoneally at ineffective doses; that is, these compounds were administered at doses that, when administered alone, are not effective in relieving pain. Pain reversal was then assessed using the Chung rat model of chronic pain. The model is described by Kim and Chung, Pain, […], at 355-363 (1992) and in U.S. Pat. No. 7,091,232, both of which are incorporated by reference herein.", "data": [{"smiles": "C1=NC(CC2CCc3ccccc3C2)CN1", "note": "(stereo not shown) [Compound No. 27]", "values": [{"measurement": "Pain Reversal", "setting": "Compound No. 27 10 μg/kg i.p. (ineffective dose alone) given immediately after amitriptyline 30 μg/kg i.p.", "result": 81, "unit": "%"}]}, {"smiles": "CN(C)CCC=C1c2ccccc2CCc2ccccc21", "note": "[Amitriptyline, reference compound]", "values": [{"measurement": "Pain Reversal", "setting": "amitriptyline alone, 30 μg/kg intraperitoneally (minimally effective dose)", "result": 43, "unit": "%"}, {"measurement": "Pain Reversal", "setting": "amitriptyline alone, 30 μg/kg intraperitoneally (minimally effective dose), listed as amitriptyline", "result": 43, "unit": "%"}]}, {"smiles": "C[C@@H](c1c[nH]c(=S)[nH]1)c1cccc2ncccc12", "note": "[Compound No. 95]", "values": [{"measurement": "Pain Reversal", "setting": "Compound No. 95 1 μg/kg i.p. (ineffective dose alone) given immediately after amitriptyline 30 μg/kg i.p.", "result": 80, "unit": "%"}]}]}
